How the values were obtained:
Type in all cases: cell-based
[1] = test system: HGF-induced EMT in NBT-II cells; test: EMT spot migration assay, HGF-induced; details: HGF-induced EMT (4 ng/ml HGF), CDR dose response from 6.67 μM, read-out: Cell Dispersion IC 50, HGF
Method: NBT-II cells were stably transfected with mcherry-fluorescent H2B and maintained in DMEM supplemented with 10% fetal bovine serum (FBS, Thermo Scientific), 1 μg/ml puromycin (Sigma) and 100 units/ml penicillin-streptomycin (1× pen-strep, Invitrogen). Cells were grown to 80% confluency in tissue culture flasks prior to plating. Cells were trypsinized and concentrated to a density of 5×10^6 cell/ml in CO2-independent medium (Invitrogen) supplemented with 10% FBS. The cell suspension was then evenly dispersed into the wells of two columns of a 96-well V-bottom plate. Using a robotic liquid-handling station (Bravo, Agilent Technologies), 0.5 μl of cell suspension was transferred from the two columns of the cell suspension-loaded plate and deposited into the center of the wells of two columns of a 96-well clear bottom, black assay plate (Corning). This process was repeated six times so that all 96 wells of the assay plate were deposited with a cell suspension spot. The plate was then sealed to minimize evaporation of the cell suspension spots and transferred to a 37° C., 5% CO2 incubator to allow for cells to attach to the culture surface. After 1 hour, the plate was gently washed with medium once to remove unattached cells, refreshed with 100 μl of assay medium (DMEM supplemented with 10% FBS and 1× pen-strep), and then further incubated to allow for cell-cell contacts to establish in the cell colonies.
Four tiled, non-overlapping images were acquired around the center of each well, and were then stitched together during image analysis to generate a montage covering an area of 3.2 mm×3.2 mm. These images (T1) represent the initial state of the cell colonies before EMT induction.
After the T1 images were acquired, 1 μl of test compounds were transferred from compound stock plates and added to the assay plates. Appropriate negative controls (1 μl DMSO) and positive controls (1 μl 1.0 mM compound in DMSO) were also added into columns 1 and 12 of each assay plate, respectively. […] The cultures were then further incubated overnight.
The next day, 50 μl of growth factor-containing medium was added to each well of the assay-plates. For each of the growth factor-induced EMT spot migration assays, the final growth factor concentrations in each well is optimized to be 20 ng/ml EGF (Sigma), 4 ng/ml HGF (Calbiochem) or 150 ng/ml IGF-1 (R&D Systems), respectively. The cultures were then incubated for another 24 hours, to allow for EMT and sufficient cell motility/dispersion to occur in the cell colonies.
Finally, the cell colonies were imaged again using the microplate imager, as described above. These images (T2) represent the final state of the cell colonies after compound treatment and EMT induction. The acquired T1 and T2 image sets for each assay plate were then sent for image analysis.
The acquisition of each well was obtained by four adjacent field images with no interstice in between. Each field image was loaded and nuclei were initially segmented independently of other fields to prevent artifact at the field border. Nuclei segmentation was achieved by combining a wavelet transform which is robust to noise and unhomogeneous background, and a watershed algorithm based on intensities to split nuclei clusters. Mask of nuclei segmentation of the different fields were then stitched together in order to obtain a large segmentation of the whole well. Cell bodies were estimated by applying a morphological dilation on the nucleus segmentation using a disk of 30 pixels (48 μm) in diameter. In cells that are contiguous, such as in a cell colony, nuclei segmentation dilation will result in the formation of continuous region areas with surrounding cells which can then be identified as colonies.
Total cell number and spreading coefficient values for each well were then exported into an Excel sheet.

[2] = test system: E-cadherin; test: Western blot of EMT marker E-cadherin in growth factor-treated NBT-II cells; details: NBT-II cells, 0.5, 2 and 8 μM compound overnight, then EGF, HGF or IGF-1 for 24 h (FIG. 7)
Method: NBT-II cells were treated with compounds at 0.5, 2 and 8 μM overnight and incubated with a growth factor for 24 h. Cells were lysed with protease/phosphatase inhibitor-containing RIPA buffer. Proteins are separated in 8% polyacrylamide gels and transferred to PDVF membranes. Membranes were blocked in 5% BSA and incubated at 4° C. overnight with MMP-13 (Millipore), E-cadherin (BD) and α-tubulin (Sigma) primary antibodies. Membranes were then developed with HRP-conjugated secondary antibody (Amersham) and ECL substrate (Millipore).
The possibilities that ALK5, MEK, PI3K and SRC targeting compounds could modulate the expression of EMT markers, such as E-cadherin and matrix metalloproteinase-13 (MMP-13) under EMT-activated conditions were also investigated (FIG. 7). With the exception of P13K inhibitor GDC-0941, the compounds in general abrogated MMP-13 expression in growth factor-treated samples, PI3K inhibition has been previously shown to augment MMP-13 expression. […] These findings are consistent with previous reports showing that ALK5, MEK and SRC play a role in cell motility and tumor progression, while PI3K predominately regulates cell proliferation.

[3] = test system: lung carcinoma cell lines; test: Phase contrast cell morphology, lung carcinoma cell lines; details: A549, Calu-1 and H165.0 cell lines, 2 μM for 48 hours vs 0.02% DMSO
Method: Cell lines were treated with 2 μM AZD0530 or 0.02% DMSO control for 48 hours. Scale bar is 100 μm. Thus, FIG. 8 provides an example of how the method as described herein may be validated by the use of various lung carcinoma cell lines.

[4] = test system: plakoglobin; test: Western blot of plakoglobin in cell lines; details: 2 μM for 48 hours vs 0.02% DMSO
Method: FIG. 10 is a western blot image showing the increase in epithelial marker plakoglobin expression induced by AZD0530 in cell lines. Cell lines were treated with 2 μM AZD0530 or 0.02% DMSO control for 48 hours. Thus, FIG. 10 provides an example of possible downstream analysis that may be conducted subsequent to the detection of possible inhibitor by the method as described herein. In this figure, western blot analysis was used to validate the possible inhibitor detected by the method as described herein.
(§1) For western blot experiments with other cell lines, cells are treated either with AZD0530, such as 2 μM AZD0530 or DMSO, such as 0.02% DMSO control for 48 h. The samples are then processed using the same procedure as described above. The samples were probed with MMP-13, E-cadherin, plakoglobin (Cell Signaling), α-tubulin, and β-actin (Cell Signaling) antibodies.

[5] = test system: E-cadherin; test: Western blot of E-cadherin in ovarian carcinoma cell lines; details: panel of ovarian carcinoma cell lines, 2 μM for 48 hours vs 0.02% DMSO
Method: (§2) FIG. 11 is a western blot image showing the increase in epithelial marker E-cadherin expression and the decrease of mesenchymal marker MMP-13 expression in panel of ovarian carcinoma cell lines treated with AZD0530. Cell lines were treated with 2 μM AZD0530 or 0.02% DMSO control for 48 hours. Thus, FIG. 11 provides an example of possible downstream analysis that may be conducted subsequent to the detection of possible inhibitor by the method as described herein. In this figure, western blot analysis was used to validate the possible inhibitor detected by the method as described herein.
as §1

[6] = test system: MMP-13; test: Western blot of MMP-13 in ovarian carcinoma cell lines; details: panel of ovarian carcinoma cell lines, 2 μM for 48 hours vs 0.02% DMSO
Method: as §2, §1

IC50 [1]: 510 nM
SMILES: CN1CCN(CCOc2cc(OC3CCOCC3)c3c(Nc4c(Cl)ccc5c4OCO5)ncnc3c2)CC1 [AZD0530]
E-cadherin expression [2]: augment E-cadherin expression | Cell morphology (phase contrast) [3]: compaction of cell morphology | Epithelial marker plakoglobin expression [4]: increase | Epithelial marker E-cadherin expression [5]: increase | Mesenchymal marker MMP-13 expression [6]: decrease

Source: patent publication US20150004620A1, “METHOD OR DEVICE FOR IDENTIFYING INHIBITOR OF EPITHELIAL MESENCHYMAL TRANSITION” (Agency for Science, Technology and Research, priority 2011, published 2015)
